From US8648083B2, “Method of treating diabetic hyperlipidemia or hyperlipidemia with carbamoyloxy arylalkanoyl arylpiperazine compounds” (SK Biopharmaceuticals Co., Ltd., priority 2010, dated 2014)
Counter-ions that a name gives are not always drawn.

Assays:
MCP-1 = assay: Pharmaceutical effect test on inflammatory reaction in diabetic nephropathy model: MCP-1 mRNA in renal cortex; type: in vivo, rat; settings: streptozotocin-diabetic rats; 200 mg/kg orally once a day for 4 weeks; untreated diabetic 3.4±1.0 times control
PAI-1 = assay: Pharmaceutical effect test on inflammatory reaction in diabetic nephropathy model: PAI-1 mRNA in renal cortex; type: in vivo, rat; settings: streptozotocin-diabetic rats; 200 mg/kg orally once a day for 4 weeks; untreated diabetic 1.8±0.1 times control
[1] = test system: Sprague-Dawley rats having diabetes induced by streptozotocin; assay: Pharmaceutical effect test on diabetic hyperlipidemia in diabetes animal model (streptozotocin); type: in vivo, rat; settings: 200 mg/kg orally once a day for four weeks
Description: Sprague-Dawley rats (n=21, 4 weeks, male) were used as lab models (Central Lab. Animal Inc.). Rats (n=14) having diabetes induced by intraperitoneal administration of 50 mg/kg of streptozotocin were used as a test group, and rats (n=7) intraperitoneally administered with only a solvent (100 mM citric acid buffer solution, pH 4.5) were used as a control. Typically, streptozotocin destroys beta cells of the pancreas to induce diabetes, and thus, blood sugar is increased and amounts of cholesterol and triglycerides in serum are increased. 2 days after the administration of streptozotocin, diabetes was induced in the test group. The test group was divided into two groups, and rats of one group were orally administered once a day with 200 mg/kg of (R)-carbamic acid 3-[4-(3,4-dimethoxy-phenyl)-piperazine-1-yl]-3-oxo-1-phenyl-propyl ester for four weeks. The other group was orally administered with 30% polyethylene glycol (PEG) instead of the compound.
After the 4-week administration of the compound and PEG, amounts of total cholesterol and triglycerides in serum of each of the groups were measured and results thereof are shown in FIGS. 1 and 2. In order to measure the amounts of total cholesterol and triglycerides, serum was isolated from the rats and a Hitachi 7600 auto-analyzer was used.

[2] = biological target: T1, rabbit reticulocyte cells-induced 15-lipoxygenase (Oryctolagus cuniculus, UniProt P12530); assay: In-vitro test on inhibitory effect on 15-lipoxygenase (13-HPODE formation, absorbance 660 nm); type: biochemical; settings: compound 10 uM; 260 μM linolenic acid; 4° C.; PBS pH 7.4; read-out: 15-lipoxygenase Inhibitory level at 10 uM (%)
T1 construct: rabbit reticulocyte cells-induced 15-lipoxygenase as a test group; from tissue; host or cells: rabbit reticulocytes
T1 sequence (P12530 1-663): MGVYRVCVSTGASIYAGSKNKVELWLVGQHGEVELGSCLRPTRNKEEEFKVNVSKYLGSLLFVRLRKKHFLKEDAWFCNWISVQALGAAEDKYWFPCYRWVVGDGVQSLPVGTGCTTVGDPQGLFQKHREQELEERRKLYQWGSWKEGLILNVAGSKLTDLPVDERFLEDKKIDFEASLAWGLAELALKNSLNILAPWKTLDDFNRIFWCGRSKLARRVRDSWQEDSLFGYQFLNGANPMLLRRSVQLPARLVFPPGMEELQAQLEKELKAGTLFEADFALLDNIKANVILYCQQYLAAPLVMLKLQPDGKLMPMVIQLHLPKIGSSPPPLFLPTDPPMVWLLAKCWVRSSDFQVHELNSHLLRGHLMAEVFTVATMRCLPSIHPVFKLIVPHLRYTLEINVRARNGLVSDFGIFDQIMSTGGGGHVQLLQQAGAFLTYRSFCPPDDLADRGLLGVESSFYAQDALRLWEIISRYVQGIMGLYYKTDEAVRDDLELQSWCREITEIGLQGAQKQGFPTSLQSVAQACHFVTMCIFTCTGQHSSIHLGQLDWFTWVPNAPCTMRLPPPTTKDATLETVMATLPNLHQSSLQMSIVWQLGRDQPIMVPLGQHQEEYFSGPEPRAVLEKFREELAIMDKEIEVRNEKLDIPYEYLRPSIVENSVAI
Description: (§1) 12-lipoxygenase reacts with arachidonate as a substrate to produce 12-hydroxyeicosatetrenoate (12-HETE) as a product. Accordingly, 12-lipoxygenase activity is evaluated by measuring an amount of generated 12-HETE by spectrometry. Also, 15-lipoxygenase reacts with a linolenic acid as a substrate to produce 13-hydroperoxy-9,11-octadecadienoic acid (13-HPODE) as a product. Accordingly, 15-lipoxygenase activity is evaluated by measuring an amount of generated 13-HPODE by spectrometry.
15-lipoxygenase activity was measured when a concentration of each of the compounds was 10 μM. Each sample was pretreated by using a buffer solution buffer solution (phosphate buffered saline buffer, pH 7.4) at a temperature of 4° C. for 15 minutes, and then 260 μM linolenic acid (a concentration thereof was controlled to be 260 μM during reaction) was added and reacted at a temperature of 4° C. for 10 minutes, and an amount of 13-HPODE as a generated product was measured by absorbance at a wavelength of 660 nm.

TGF-β1 = assay: Pharmaceutical effect test on inflammatory reaction in diabetic nephropathy model: TGF-β1 mRNA in renal cortex; type: in vivo, rat; settings: streptozotocin-diabetic rats; 200 mg/kg orally once a day for 4 weeks; untreated diabetic 1.6±0.2 times control
fibronectin = assay: Pharmaceutical effect test on diabetic nephropathy: fibronectin expression in renal cortex by real-time RT-PCR; type: in vivo, rat; settings: streptozotocin-diabetic rats; 200 mg/kg orally once a day for 4 weeks; untreated diabetic 1.4±0.1 times control
Description: Sprague-Dawley rats (n=21, 4 weeks, male) were used as lab models (Central Lab. Animal Inc.). Rats (n=14) having diabetes induced by intraperitoneal administration of 50 mg/kg of streptozotocin were used as a test group, and rats (n=7) intraperitoneally administered with only a solvent (100 mM citric acid buffer solution, pH 4.5) were used as a control. Typically, in rats having diabetes induced by streptozotocin, diabetic nephropathy is induced by hyperglycemia, and one of the symptoms is renal fibrosis, and gene expression of an extracellular matrix protein such as fibronectin is increased. 2 days after the administration of streptozotocin, diabetes was induced in the test group. […]
After the 4-week administration of the compound and PEG, renal cortex tissues were extracted from each of the groups and then, an expression level of fibronectin was measured by a real-time reverse transcription polymerase chain reaction (that is, an amount of mRNA transcribed from fibronectin) (see FIG. 3). The expression level of fibronectin was measured by using a forward primer (5′-[…]-3′; SEQ ID NO: 1) and a reverse primer (5′-[…]-3′; SEQ ID NO: 2). […] For the control, mRNA transcribed from a beta actin gene was used, and measurement results were indicated by dividing an amount of mRNA of fibronectin quantified from the RT-PCT results by an amount of mRNA of beta actin. […]

[3] = biological target: T2, human platelet-induced 12-lipoxygenase (Homo sapiens, UniProt P18054); assay: In-vitro test on inhibitory effect on 12-lipoxygenase (12-HETE formation, absorbance 570 nm); type: biochemical; settings: compound 10 uM; 30 μM arachidonate; 25° C.; Tris-HCl pH 7.4; read-out: 12-lipoxygenase Inhibitory level at 10 uM (%)
T2 construct: human platelet-induced 12-lipoxygenase as a negative control; from tissue; host or cells: human platelets
T2 sequence (P18054 1-663): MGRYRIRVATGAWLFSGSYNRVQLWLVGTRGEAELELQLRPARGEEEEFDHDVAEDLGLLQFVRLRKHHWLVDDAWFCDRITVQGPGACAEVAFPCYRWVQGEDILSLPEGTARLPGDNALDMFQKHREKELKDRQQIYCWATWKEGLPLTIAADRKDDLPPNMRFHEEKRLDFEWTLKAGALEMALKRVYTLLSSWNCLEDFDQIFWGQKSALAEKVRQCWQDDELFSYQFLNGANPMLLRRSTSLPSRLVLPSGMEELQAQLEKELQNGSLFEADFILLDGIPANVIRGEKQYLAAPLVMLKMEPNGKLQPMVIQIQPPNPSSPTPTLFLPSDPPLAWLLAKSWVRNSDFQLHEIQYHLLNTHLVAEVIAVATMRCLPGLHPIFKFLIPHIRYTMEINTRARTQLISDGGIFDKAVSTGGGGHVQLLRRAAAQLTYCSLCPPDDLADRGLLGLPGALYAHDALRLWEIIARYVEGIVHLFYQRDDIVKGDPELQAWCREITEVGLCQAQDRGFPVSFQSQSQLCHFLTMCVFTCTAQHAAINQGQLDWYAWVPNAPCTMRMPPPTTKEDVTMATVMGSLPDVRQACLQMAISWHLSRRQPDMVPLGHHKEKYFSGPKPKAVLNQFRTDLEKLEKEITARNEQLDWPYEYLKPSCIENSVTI
Description: as §1
12-lipoxygenase activity was measured when a concentration of each of the compounds was 10 μM. Each sample was pretreated by using a buffer solution (50 mM Tris-HCl, 0.1% Triton X-100, pH 7.4) at a temperature of 25° C. for 15 minutes and then, 30 μM arachidonate (a concentration thereof was controlled to be 30 μM during reaction) was added thereto and reacted at a temperature of 25° C. for 15 minutes, and an amount of 12-HETE as a generated product was measured by absorbance at a wavelength of 570 nm.

SMILES | inhibition at 10 µM [2] [%] | inhibition at 10 µM [3] [%] | also measured
COc1ccc(N2CCN(C(=O)C[C@@H](OC(N)=O)c3ccccc3)CC2)cc1OC [Example 8, (R)-carbamic acid 3-[4-(3,4-dimethoxy-phenyl)-piperazine-1-yl]-3-oxo-1-phenyl-propyl ester] | 79 | 15 | expression level of MCP-1 gene in the renal cortex relative to control (MCP-1): 1.6±0.3 times; expression level of PAI-1 gene in the renal cortex relative to control (PAI-1): 1.1±0.2 times; concentration of total cholesterol in serum ([1]; untreated diabetic 120±13, control 62±5 mg/dl): 66 ± 9 mg/dL; concentration of triglyceride in serum ([1]; untreated diabetic 760±162 mg/dl): 126 ± 44 mg/dL; expression level of TGF-β1 gene in the renal cortex relative to control (TGF-β1): 1.3±0.2 times; expression level of fibronectin of the renal cortex (mRNA / beta actin mRNA) relative to control (fibronectin): 1.2±0.1 times
COc1ccc(N2CCN(C(C)CC(OC(N)=O)c3ccccc3)CC2)cc1OC (centres unmarked) [Example 9, carbamic acid 3-[4-(3,4-dimethoxy-phenyl)-piperazine-1-yl]-1-phenyl-butyl ester] | 62 | 0 | 
COc1ccc(N2CCN(C(=O)CC(OC(N)=O)c3ccc([N+](=O)[O-])cc3)CC2)cc1OC (centres unmarked) [Example 5, carbamic acid 3-[4-(3,4-dimethoxy-phenyl)-piperazine-1-yl]-1-(4-nitro-phenyl)-3-oxo-propyl ester] | 75 | 0 | 
COc1ccc(N2CCN(C(=O)CC(OC(N)=O)c3ccc(F)cc3)CC2)cc1OC (centres unmarked) [Example 2, carbamic acid 3-[4-(3,4-dimethoxy-phenyl)-piperazine-1-yl]-1-(4-fluoro-phenyl)-3-oxo-propyl ester] | 69 | -5 | 
COc1ccc(N2CCN(C(=O)CC(OC(N)=O)c3ccc(Cl)cc3)CC2)cc1OC (centres unmarked) [Example 10, carbamic acid 3-[4-(3,4-dimethoxy-phenyl)-piperazine-1-yl]-1-(4-chloro-phenyl)-3-oxo-propyl ester] | 72 | 7 | 
COc1ccc(N2CCN(C(=O)CC(OC(N)=O)c3ccc(C(F)(F)F)cc3)CC2)cc1OC (centres unmarked) [Example 4, carbamic acid 3-[4-(3,4-dimethoxy-phenyl)-piperazine-1-yl]-1-(4-trifluoromethyl-phenyl)-3-oxo-propyl ester; hydrochloride] | 48 | 0 | 

Further lines, with some results ahead:

inhibition at 10 µM [2] [%] | inhibition at 10 µM [3] [%] | SMILES | also measured
69 | 2 | COc1ccc(N2CCN(C(=O)C[C@H](OC(N)=O)c3ccccc3)CC2)cc1OC [Example 7, (S)-carbamic acid 3-[4-(3,4-dimethoxy-phenyl)-piperazine-1-yl]-3-oxo-1-phenyl-propyl ester] | 
114 | 11 | NC(=O)O[C@H](CC(=O)N1CCN(c2ccc(Cl)cc2)CC1)c1ccccc1 [Example 6, (R)-carbamic acid 3-[4-(4-chloro-phenyl)-piperazine-1-yl]-3-oxo-1-phenyl-propyl ester] | 
85 | -8 | NC(=O)OC(CC(=O)N1CCN(c2ccc3c(c2)OCO3)CC1)c1ccccc1 (centres unmarked) [Example 3, carbamic acid 3-(4-benzo[1,3]dioxol-5-yl-piperazine-1-yl)-3-oxo-1-phenyl-propyl ester] | 
73 | 10 | COc1ccc(N2CCN(C(=O)CC(OC(N)=O)c3ccccc3)CC2)cc1OC (centres unmarked) [Example 1, carbamic acid 3-[4-(3,4-dimethoxy-phenyl)-piperazine-1-yl]-3-oxo-1-phenyl-propyl ester] | 
